This note sets out measurements from patent US8445510B2, “Fused bicyclic kinase inhibitors” (OSI Pharmaceuticals, LLC, priority 2011, dated 2013).

The target in experiment [1] is T1, Aurora B (Homo sapiens, UniProt Q96GD4).
T1 construct: HT-29 cells grown in complete growth media
Put plainly: Aurora B cell mechanistic assay (HT-29), phospho-Histone H3 (Ser10) ELISA. The format is cell-based. Particulars: HT-29 cell line; inhibition of phospho-Histone H3 (Ser10); at least duplicate experiments (italicized if single experiment); read-out: Aurora B mech IC50. On the procedure:
The cellular activity of the compounds of the present invention against Aurora B may be determined by the following procedure. HT-29 cells grown in complete growth media (McCoy's 5A, 10% FCS, 1% L-glutamine) were plated into wells of a 96 well tissue culture plate (Falcon 3072) at a cell density of 4×10^4 cells/0.09 ml media/well. Cells were subsequently incubated overnight in a 5% CO2 humidified 37° C. incubator. The following day 10 μl of a 10× stock of test compound serially diluted in media was added to the cells and incubated for 1 h at 37° C. at which time Calyculin A (Cell Signaling #9902) was added at a concentration of 100 nM and cells incubated for an additional 30 minutes in a 5% CO2 humidified 37° C. incubator. Media was then aspirated and cells lysed using a Triton based lysis buffer. Lysates were transferred to a pre-coated anti-Histone H3 antibody coated plate supplied by Cell Signaling in their PathScan phospho-Histone H3 (Ser10) ELISA kit (#7155). After an overnight incubation with lysate the ELISA was continued following the manufacturer's instructions. Signal was measured on a Wallac Victor plate reader at 450 nm. DMSO control treated cells served as 100% signal and an Aurora B kinase inhibitor served as 100% inhibition. The percent inhibition of phospho-Histone H3 (Ser10) was expressed as % control. IC50 values were calculated from the percent control data using a standard four-parameter model.
The IC50 values of exemplary compounds of the present invention determined in a Aurora B cell mechanistic assay using the HT-29 cell line according to the procedures described herein in at least duplicate experiments are abbreviated as follows and are shown in Table 4: A, IC50≦0.05 μM; B, 0.05 μM<IC50≦0.2 μM; C, 0.2 μM<IC50≦1 μM; D, IC50>1 μM; ND, not determined. If only data from single experiments are available, the abbreviations are italicized. The Example # of Table 4 corresponds to the compound example number as illustrated in the Examples section.

The test system of experiment [2] is Karpas-299 cells. Put plainly: Karpas-299 cell proliferation assay (CellTiter-Glo). The format is cell-based. The following applies: Homo sapiens, 72 h; Karpas-299 cell line (NPM-ALK); 3 days incubation; at least duplicate experiments; read-out: Prolif. IC50.

Some results are limits rather than exact numbers.

T1 sequence (Q96GD4 whole entry): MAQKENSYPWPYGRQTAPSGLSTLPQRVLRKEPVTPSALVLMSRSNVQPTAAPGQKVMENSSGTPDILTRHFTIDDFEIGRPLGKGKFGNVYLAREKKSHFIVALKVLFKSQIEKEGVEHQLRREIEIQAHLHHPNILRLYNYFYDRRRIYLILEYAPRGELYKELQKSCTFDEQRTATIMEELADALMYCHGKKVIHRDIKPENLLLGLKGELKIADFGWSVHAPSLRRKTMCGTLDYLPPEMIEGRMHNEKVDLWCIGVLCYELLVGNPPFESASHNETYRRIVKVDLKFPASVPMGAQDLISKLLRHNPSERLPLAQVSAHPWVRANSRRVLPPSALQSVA

For the molecule `COc1ccc(F)c(Cl)c1[C@@H](C)c1c[nH]c2ncc(-c3cnn([C@H]4CC[C@H](C(N)=O)CC4)c3C)cc12` [Example 18, trans-4-(4-{3-[(1S)-1-(2-chloro-3-fluoro-6-methoxyphenyl)ethyl]-1H-pyrrolo[2,3-b]pyridin-5-yl}-5-methyl-1H-pyrazol-1-yl)cyclohexanecarboxamide], the IC50 is 200 to 1000 nM in experiment [1] and not above 50 nM in experiment [2].

As to `COc1ccc(F)c(Cl)c1[C@@H](C)c1c[nH]c2ncc(-c3cn([C@H]4CC[C@H](C(N)=O)CC4)nc3C)cc12` [Example 19, trans-4-(4-{3-[(1S)-1-(2-Chloro-3-fluoro-6-methoxyphenyl)ethyl]-1H-pyrrolo[2,3-b]pyridin-5-yl}-3-methyl-1H-pyrazol-1-yl)cyclohexanecarboxamide], the IC50 in experiment [1] is 50 to 200 nM; in experiment [2], not above 50 nM.

Take `CNC(=O)[C@H]1CC[C@H](n2cc(-c3cnc4[nH]cc([C@H](C)c5c(OC)ccc(F)c5Cl)c4c3)c(C)n2)CC1` [Example 22, trans-4-(4-{3-[(1S)-1-(2-Chloro-3-fluoro-6-methoxyphenyl)ethyl]-1H-pyrrolo[2,3-b]pyridin-5-yl}-3-methyl-1H-pyrazol-1-yl)-N-methylcyclohexanecarboxamide]: the IC50 in experiment [1] is 50 to 200 nM; in experiment [2], not above 50 nM.

Consider `COc1ccc(F)c(Cl)c1[C@@H](C)c1c[nH]c2ncc(-c3cnn([C@H]4CC[C@H](O)CC4)c3C)cc12` [Example 27, trans-4-(4-{3-[(1S)-1-(2-Chloro-3-fluoro-6-methoxyphenyl)ethyl]-1H-pyrrolo[2,3-b]pyridin-5-yl}-5-methyl-1H-pyrazol-1-yl)cyclohexanol], for which the half-maximal inhibitory concentration (IC50) in experiment [1] was more than 1000 nM; in experiment [2], not above 50 nM.

As for `COc1ccc(F)c(Cl)c1[C@@H](C)c1c[nH]c2ncc(-c3cnn([C@@H]4C[C@@H](O)[C@@H](O)C4)c3C)cc12` [Example 31, (1R,2S,4S)-4-(4-{3-[(1S)-1-(2-Chloro-3-fluoro-6-methoxyphenyl)ethyl]-1H-pyrrolo[2,3-b]pyridin-5-yl}-5-methyl-1H-pyrazol-1-yl)cyclopentane-1,2-diol], the IC50 in experiment [1] is more than 1000 nM; in experiment [2], not above 50 nM.

For `COc1ccc(F)c(Cl)c1[C@@H](C)c1c[nH]c2ncc(-c3cn([C@@H]4C[C@@H](O)[C@@H](O)C4)nc3C)cc12` [Example 32, (1R,2S,4S)-4-(4-{3-[(1S)-1-(2-Chloro-3-fluoro-6-methoxyphenyl)ethyl]-1H-pyrrolo[2,3-b]pyridin-5-yl}-3-methyl-1H-pyrazol-1-yl)cyclopentane-1,2-diol], the 50% inhibitory concentration (IC50) is 50 to 200 nM in experiment [1] and not above 50 nM in experiment [2].

For the molecule `COc1ccc(F)c(Cl)c1[C@@H](C)c1c[nH]c2ncc(-c3c(C)nn([C@@H]4C[C@@H](O)[C@@H](O)C4)c3C)cc12` [Example 33, (1R,2S,4S)-4-(4-{3-[(1S)-1-(2-Chloro-3-fluoro-6-methoxyphenyl)ethyl]-1H-pyrrolo[2,3-b]pyridin-5-yl}-3,5-dimethyl-1H-pyrazol-1-yl)cyclopentane-1,2-diol], the IC50 was more than 1000 nM in experiment [1] and not above 50 nM in experiment [2].

As for `COc1ccc(F)c(Cl)c1[C@@H](C)c1c[nH]c2ncc(-c3cn(C[C@@H](O)CO)nc3C(F)(F)F)cc12` [Example 34, (2R)-3-[4-{3-[(1S)-1-(2-Chloro-3-fluoro-6-methoxyphenyl)ethyl]-1H-pyrrolo[2,3-b]pyridin-5-yl}-3-(trifluoromethyl)-1H-pyrazol-1-yl]propane-1,2-diol], the figures for the IC50 in experiment [1] and in experiment [2] were more than 1000 nM and 200 to 1000 nM, respectively.

For `COc1ccc(F)c(Cl)c1[C@@H](C)c1c[nH]c2ncc(-c3cnn(C[C@@H](O)CO)c3C(F)(F)F)cc12` [Example 35, (2R)-3-[4-{3-[(1S)-1-(2-Chloro-3-fluoro-6-methoxyphenyl)ethyl]-1H-pyrrolo[2,3-b]pyridin-5-yl}-5-(trifluoromethyl)-1H-pyrazol-1-yl]propane-1,2-diol], the half-inhibitory concentration (IC50) was more than 1000 nM in experiment [1] and 200 to 1000 nM in experiment [2].
